The target of one series is proteinase K (Parengyodontium album, UniProt P06873). Briefly: Resistance to proteinase K digestion. The following applies: isolated enzyme proteinase k.
A short description of series [1]: Temperature-dependent circular dichroism. Format: physicochemical. The following applies: CD; at 95°C. (CD spectra are sensitive to the conformation of chiral molecules.)

No end group written: not given here.

Chain of proteinase K (P06873 106-384, species assumed): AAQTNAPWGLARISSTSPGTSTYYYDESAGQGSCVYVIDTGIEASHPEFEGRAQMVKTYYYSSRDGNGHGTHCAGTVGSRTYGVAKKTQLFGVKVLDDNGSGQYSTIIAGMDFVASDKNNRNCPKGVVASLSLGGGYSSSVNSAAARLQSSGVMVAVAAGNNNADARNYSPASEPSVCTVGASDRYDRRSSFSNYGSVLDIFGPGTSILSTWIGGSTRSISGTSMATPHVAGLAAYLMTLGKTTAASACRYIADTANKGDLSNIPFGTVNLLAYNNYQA

For orientation: half-life means the time needed for the level to fall by half in the phase considered. A high value points to slow decline. In turn, Ac-TWNPATGKWT-NH2 [HP7Δ] had a half-life at proteinase K of 0.6 min.

At proteinase K, KTWNPATGKWTE [HP7] gave a half-life of 2 min. This half-life lies about 3.3-fold higher than the previous one. In the case of “NS1 HBS: HBS-stabilized β-hairpin derived from the Ras-binding NS1 monobody (GGWKGQVYYVG; HBS hydrogen bond surrogate constraint)”, in series [1], the “decrease in spectral intensity at 215 nm” value is listed as 25%.

The record behind these values is article PMC7187762 (ACS chemical biology, 2018).
